Test results as given in US10588929B1, “Method of synthesizing watermelon seed particles” (KING SAUD UNIVERSITY, priority 2019, dated 2020).

Columns and labels:
Experiment in all cases: Zone of inhibition, diffusion agar technique
Type in all cases: cell-based
Conditions in all cases: beyond well diameter of 6 mm, 100 μg of nanoparticles
[1] = test system: Escherichia coli (RCMB 010054)
Description: (§1) Watermelon seed nanoparticles synthesized according to Example 1 were tested for antimicrobial activity against gram negative bacteria, gram positive bacteria, and fungi. Zone of inhibition studies were performed, the results of which are summarized in Table 2 (displaying mean zone of inhibition in mm ± standard deviation beyond well diameter of 6 mm). Testing used the diffusion agar technique with 6.0 mm well diameter and administration of 100 μg of the watermelon seed nanoparticles.

[2] = test system: Streptococcus pneumoniae (RCMB 010011)
Description: as §1

[3] = test system: Bacillus subtilis (RCMB 010068)
Description: as §1

[4] = test system: Aspergillus fumigatus (RCMB 02567)
Description: as §1

Which “mean zone of inhibition” value [1] does the source give for Gentamicin here?
The value was 20.3 ± 0.58 mm.

How did the “mean zone of inhibition” value [2] turn out when `CC1(C)S[C@@H]2[C@H](NC(=O)[C@H](N)c3ccccc3)C(=O)N2[C@H]1C(=O)O` [Ampicillin] was run?
The value was 21.0 ± 1.0 mm.

What about the “mean zone of inhibition” value [3] of the same compound?
The value was 31.3 ± 1.5 mm.

Which “mean zone of inhibition” value [4] does the source give for `C[C@@H]1[C@H](O)[C@@H](C)/C=C/C=C/C=C/C=C/C=C/C=C/C=C/[C@H](O[C@@H]2O[C@H](C)[C@@H](O)[C@H](N)[C@@H]2O)C[C@@H]2O[C@](O)(C[C@@H](O)C[C@@H](O)[C@H](O)CC[C@@H](O)C[C@@H](O)CC(=O)O[C@H]1C)C[C@H](O)[C@H]2C(=O)O` [Amphotericin B] here?
Its value is 21.7 ± 1.5 mm.
